Experimental data as given in ChEMBL document CHEMBL5331103, “Discovery of novel 2-hydroxyl-4-benzyloxybenzyl aniline derivatives as potential multifunctional agents for the treatment of Parkinson's disease” (Eur J Med Chem, 2023).
One block for each compound: values may come before it. Calls of active or inactive are those of the source. No cut-off for these calls is given here.

How the values were obtained:
[1] = target: T1, Amine oxidase [flavin-containing] A (Homo sapiens, UniProt P21397); experiment: Inhibition of MAO-A (unknown origin) using kynuramine as substrate at 10 uM preincubated for 30 mins followed by substrate addition and measured after 30 mins by fluorescence based analysis relative to control; conditions: 0.5 h, time 60 min
T1 sequence (P21397 whole entry): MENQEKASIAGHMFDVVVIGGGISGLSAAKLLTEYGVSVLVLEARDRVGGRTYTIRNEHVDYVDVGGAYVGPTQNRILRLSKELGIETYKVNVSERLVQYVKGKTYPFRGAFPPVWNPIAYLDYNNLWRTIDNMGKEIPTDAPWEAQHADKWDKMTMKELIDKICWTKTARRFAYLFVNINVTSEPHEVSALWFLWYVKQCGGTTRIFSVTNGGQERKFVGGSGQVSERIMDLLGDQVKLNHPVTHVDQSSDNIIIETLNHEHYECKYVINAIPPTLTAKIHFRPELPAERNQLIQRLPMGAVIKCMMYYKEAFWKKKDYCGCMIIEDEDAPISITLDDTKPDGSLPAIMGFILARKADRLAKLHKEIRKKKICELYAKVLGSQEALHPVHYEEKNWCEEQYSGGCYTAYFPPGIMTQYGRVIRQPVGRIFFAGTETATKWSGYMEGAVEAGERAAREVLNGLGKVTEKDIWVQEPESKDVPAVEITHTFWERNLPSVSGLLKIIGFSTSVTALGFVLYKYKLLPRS

[2] = target: T2, Amine oxidase [flavin-containing] B (Homo sapiens, UniProt P27338)
T2 sequence (P27338 whole entry): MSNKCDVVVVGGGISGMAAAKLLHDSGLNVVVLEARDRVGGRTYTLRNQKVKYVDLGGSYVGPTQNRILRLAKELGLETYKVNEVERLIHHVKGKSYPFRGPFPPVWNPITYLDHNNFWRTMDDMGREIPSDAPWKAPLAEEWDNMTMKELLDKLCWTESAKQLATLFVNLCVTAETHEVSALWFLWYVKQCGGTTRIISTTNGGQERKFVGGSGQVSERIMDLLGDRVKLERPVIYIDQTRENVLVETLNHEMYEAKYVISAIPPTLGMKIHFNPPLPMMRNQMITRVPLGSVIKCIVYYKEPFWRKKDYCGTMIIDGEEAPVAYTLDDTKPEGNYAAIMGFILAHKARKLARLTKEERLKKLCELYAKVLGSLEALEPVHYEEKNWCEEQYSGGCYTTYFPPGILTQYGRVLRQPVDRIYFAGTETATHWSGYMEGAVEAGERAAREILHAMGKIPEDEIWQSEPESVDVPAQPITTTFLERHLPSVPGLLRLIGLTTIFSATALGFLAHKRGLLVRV
Description: Inhibition of MAO-B (unknown origin) using kynuramine as substrate preincubated for 30 mins followed by substrate addition and measured after 30 mins by fluorescence based analysis

[3] = target: T2, Amine oxidase [flavin-containing] B; experiment: Competitive inhibition of MAO-B (unknown origin) using kynuramine as substrate assessed as […] at 0.007 to 0.028 uM by Lineweaver-Burk plot analysis; conditions: dose 0.007-0.028 µM
[4] = target: T2, Amine oxidase [flavin-containing] B; experiment: Competitive inhibition of MAO-B (unknown origin) using kynuramine as substrate assessed as increase in Km at 0.007 to 0.028 uM by Lineweaver-Burk plot analysis; conditions: dose 0.007-0.028 µM
[5] = target: T2, Amine oxidase [flavin-containing] B; experiment: Competitive inhibition of MAO-B (unknown origin) using kynuramine as substrate assessed as inhibition constant by Lineweaver-Burk plot analysis
[6] = Metal chelating activity assessed as Zn2+-compound complex formation by measuring increase in absorbance incubated for 2 hrs in the presence of ZnCl2 by UV-Vis spectra analysis
[7] = Metal chelating activity assessed as Fe2+-compound complex formation by measuring increase in absorbance incubated for 2 hrs in the presence of FeSO4 by UV-Vis spectra analysis
[8] = Metal chelating activity assessed as Cu2+-compound complex formation by measuring increase in absorbance incubated for 2 hrs in the presence of CuCl2 by UV-Vis spectra analysis
[9] = Metal chelating activity assessed as Al3+-compound complex formation by measuring increase in absorbance incubated for 2 hrs in the presence of AlCl3 by UV-Vis spectra analysis
[10] = Metal chelating activity assessed as Fe3+-compound complex formation by measuring increase in absorbance incubated for 2 hrs in the presence of FeCl3 by UV-Vis spectra analysis
[11] = Metal chelating activity assessed as Fe2+-compound complex formation by measuring red shift incubated for 2 hrs in the presence of FeSO4 by UV-Vis spectra analysis
[12] = Metal chelating activity assessed as Fe2+-compound complex formation by measuring increase in absorbance incubated for 2 hrs in the presence of FeSO4 at 30 to 900 uM by UV-Vis spectra analysis
[13] = Permeability of the compound in porcine brain incubated for 18 hrs by PAMPA-BBB assay; assay type: ADME, Sus scrofa; conditions: pig, read-out: permeability
PC-12 [14] = experiment: Cytotoxicity against rat PC-12 cells assessed as reduction in cell viability upto 50 uM incubated for 2 hrs by MTT assay; assay type: toxicity, cell-based; conditions: pc-12, 2 h
PC-12 [15] = experiment: Neuroprotective activity against H2O2-induced cell damage in rat PC-12 cells assessed as increase in cell viability at 10 uM preincubated for 2 hrs followed by H2O2 addition and measured after 24 hrs by MTT assay (reference value: 50.3%); assay type: functional; conditions: time 26 hrs
PC-12 [16] = experiment: Neuroprotective activity against H2O2-induced cell damage in rat PC-12 cells assessed as increase in cell viability at 2.5 uM preincubated for 2 hrs followed by H2O2 addition and measured after 24 hrs by MTT assay (reference value: 50.3%); assay type: functional; conditions: time 26 hrs
PC-12 [17] = experiment: Neuroprotective activity against H2O2-induced cell damage in rat PC-12 cells assessed as increase in cell viability at 50 uM preincubated for 2 hrs followed by H2O2 addition and measured after 24 hrs by MTT assay (reference value: 50.3%); assay type: functional; conditions: time 26 hrs
BV-2 [18] = experiment: Cytotoxicity against mouse BV-2 cells assessed as reduction in cell viability upto 10 uM incubated for 30 mins by MTT assay; assay type: toxicity, cell-based; conditions: bv-2, 0.5 h
BV-2 [19] = experiment: Anti-neuroinflammatory activity in mouse BV-2 cells assessed as inhibition of LPS-induced NO production at 10 uM preincubated for 30 mins followed by LPS stimulation and measured after 24 hrs by Griess reagent based assay relative to control; assay type: functional; conditions: time 24.5 hrs
BV-2 [20] = experiment: Anti-neuroinflammatory activity in mouse BV-2 cells assessed as inhibition of LPS-induced NO production at 0.5 uM preincubated for 30 mins followed by LPS stimulation and measured after 24 hrs by Griess reagent based assay relative to control; assay type: functional; conditions: time 24.5 hrs
BV-2 [21] = experiment: Anti-neuroinflammatory activity in mouse BV-2 cells assessed as inhibition of LPS-induced NO production at 2.5 uM preincubated for 30 mins followed by LPS stimulation and measured after 24 hrs by Griess reagent based assay relative to control; assay type: functional; conditions: time 24.5 hrs
BV-2 [22] = experiment: Anti-neuroinflammatory activity in mouse BV-2 cells assessed as inhibition of LPS-induced TNF-alpha production at 10 uM preincubated for 30 mins followed by LPS stimulation and measured after 24 hrs by ELISA analysis relative to control; assay type: functional; conditions: time 24.5 hrs
BV-2 [23] = experiment: Anti-neuroinflammatory activity in mouse BV-2 cells assessed as inhibition of LPS-induced TNF-alpha production preincubated for 30 mins followed by LPS stimulation and measured after 24 hrs by ELISA analysis; assay type: functional, cell-based; conditions: dose 0.5-10 µM, time 24.5 hrs
BV-2 [24] = experiment: Inhibition of LPS-induced ROS production in mouse BV-2 cells at 2.5 uM preincubated for 30 mins followed by LPS-stimulation and measured after 30 mins by DCFH-DA based fluorescence microplate reader analysis relative to control; assay type: functional; conditions: BV-2, 1 h, time 60 min
BV-2 [25] = experiment: Inhibition of LPS-induced ROS production in mouse BV-2 cells at 10 uM preincubated for 30 mins followed by LPS-stimulation and measured after 30 mins by DCFH-DA based fluorescence microplate reader analysis relative to control; assay type: functional; conditions: BV-2, 1 h, time 60 min
BV-2 [26] = experiment: Inhibition of LPS-induced NFkappaB activation in mouse BV-2 cells assessed as reduction in IkappaBalpha phosphorylation at 1 to 10 uM preincubated for 30 mins followed by LPS-stimulation and measured after 16 hrs by Western blot analysis; assay type: cell-based; conditions: dose 1-10 µM, time 16.5 hrs
BV-2 [27] = experiment: Inhibition of LPS-induced NFkappaB activation in mouse BV-2 cells assessed as inhibition of p65 translocation to nucleus at 1 to 10 uM preincubated for 30 mins followed by LPS-stimulation and measured after 16 hrs by Western blot analysis; assay type: cell-based; conditions: dose 1-10 µM, time 16.5 hrs
Mus musculus [28] = experiment: Anti-parkinson's disease activity in MPTP-induced C57BL/6C mouse model assessed as increase in traction test score at 53.5 mg/kg, IG preadministered with MPTP for 5 days followed by compound administration for 3 weeks and measured 1 hrs post last dose by traction test; assay type: functional, organism-based
Mus musculus [29] = experiment: Anti-parkinson's disease activity in MPTP-induced C57BL/6C mouse model assessed as reduction in beam walking test time at 53.5 mg/kg, IG preadministered with MPTP for 5 days followed by compound administration for 3 weeks and measured 1 hrs post last dose by beam-walking test; assay type: functional, organism-based
Mus musculus [30] = experiment: Anti-parkinson's disease activity in MPTP-induced C57BL/6C mouse model assessed as reduction in time required to turn the head to 180 degree at 53.5 mg/kg, IG preadministered with MPTP for 5 days followed by compound administration for 3 weeks and measured 1 hrs post last dose by pole test; assay type: functional, organism-based
Mus musculus [31] = experiment: Anti-parkinson's disease activity in MPTP-induced C57BL/6C mouse model assessed as reduction in total time required to reach the bottom of pole at 53.5 mg/kg, IG preadministered with MPTP for 5 days followed by compound administration for 3 weeks and measured 1 hrs post last dose by pole test; assay type: functional, organism-based
Mus musculus [32] = experiment: In vivo inhibition of MAO-B in MPTP-induced C57BL/6C parkinson's mouse model assessed as increase in DA level in corpus striatum at 53.5 mg/kg, IG preadministered with MPTP for 5 days followed by compound administration for 3 weeks and measured 1 hrs post last dose by HPLC-ECD method; assay type: functional, organism-based
Mus musculus [33] = experiment: Anti-parkinson's disease activity in MPTP-induced C57BL/6C mouse model assessed as decrease in MDA level in corpus striatum at 53.5 mg/kg, IG preadministered with MPTP for 5 days followed by compound administration for 3 weeks and measured 1 hrs post last dose by HPLC-ECD method; assay type: functional, organism-based
PC-12 [34] = experiment: Cytotoxicity against rat PC-12 cells assessed as reduction in cell viability at 10 uM incubated for 2 hrs by MTT assay; assay type: toxicity, cell-based; conditions: pc-12, 2 h

SMILES: CC(C)(C)c1ccc(COc2ccc(CNc3ccccc3)c(O)c2)cc1
- inhibition at 10 µM [1]: < 5%
- IC50 [2]: 435 nM

SMILES: Cc1ccc(COc2ccc(CNc3ccccc3)c(O)c2)cc1
- inhibition at 10 µM [1]: 26.4%
- IC50 [2]: 366 nM

SMILES: Oc1cc(OCc2ccccc2F)ccc1CNc1ccccc1
- inhibition at 10 µM [1]: 8.34%
- IC50 [2]: 334 nM

SMILES: Oc1ccc(/C=C/c2cc(O)cc(O)c2)cc1 [RESVERATROL]
- Activity (PC-12 [15]): 63.6%
- Activity (PC-12 [34]): Non-Toxic
- Activity (BV-2 [18]): Non-Toxic
- inhibition at 10 µM (BV-2 [19]): 51.8%
- inhibition at 10 µM (BV-2 [22]): 52.2%
- inhibition at 10 µM (BV-2 [25]): 56.7%

Now from value to compound, other results behind:

- inhibition at 10 µM [1]: 11.8%
- IC50 [2]: 95 nM
SMILES: Oc1cc(OCc2cccc(F)c2)ccc1CNc1ccccc1

- inhibition at 10 µM [1]: 38.3%
- IC50 [2]: 35 nM
SMILES: Oc1cc(OCc2ccc(F)cc2)ccc1CNc1ccccc1F

- inhibition at 10 µM [1]: 43.7%
- IC50 [2]: 14 nM
- inhibition (INH) [3]: Active
- inhibition (INH) [4]: Active
- Ki [5]: 18 nM
- Activity [6]: Active
- Activity [7]: Active
- Activity [8]: Active
- Activity [9]: Active
- Activity [10]: Active
- Activity [11]: Active
- Activity [12]: Active
- Papp at 18 h [13]: 8.62 ×10⁻⁶ cm/s
SMILES: Oc1cc(OCc2ccc(F)cc2)ccc1CNc1ccccc1
- Activity (PC-12 [14]): Non-Toxic
- Activity (PC-12 [15]): 69.6%
- Activity (PC-12 [16]): 59.8%
- Activity (PC-12 [17]): 77.2%
- Activity (BV-2 [18]): Non-Toxic
- inhibition at 10 µM (BV-2 [19]): 76.1%
- inhibition at 0.5 µM (BV-2 [20]): 13.5%
- inhibition at 2.5 µM (BV-2 [21]): 28%
- inhibition at 10 µM (BV-2 [22]): 63.9%
- Activity (BV-2 [23]): Dose-Dependent Effect
- inhibition at 2.5 µM (BV-2 [24]): 21.2%
- inhibition at 10 µM (BV-2 [25]): 99%
- inhibition (BV-2 [26]): Active
- inhibition (BV-2 [27]): Active
- Activity (Mus musculus [28]): Active
- Activity (Mus musculus [29]): Active
- Activity (Mus musculus [30]): Active
- Activity (Mus musculus [31]): Active
- inhibition (Mus musculus [32]): Active
- Activity (Mus musculus [33]): Active

- inhibition at 10 µM [1]: 51.2%
- IC50 [2]: 58 nM
SMILES: Oc1cc(OCc2ccc(Cl)cc2)ccc1CNc1ccccc1

- inhibition at 10 µM [1]: 35.5%
- IC50 [2]: 67 nM
SMILES: Oc1cccc(NCc2ccc(OCc3ccc(F)cc3)cc2O)c1
